From US20200055817A1 (AbbVie Deutschland GmbH & Co. KG, priority 2016, published 2020)

Experiments:
Assay type in all cases: cell-based
[1] = target: T1, human EDG8 (S1PR5) receptor (Homo sapiens, UniProt Q9H228); experiment: Aequorin assay, agonist potency, CHO-A21-EDG8#12 cells; settings: agonist mode, aequorin luminescence; read-out: S1P5 EC50 range #
T1 construct: carries the transgenes human EDG8 (S1PR5) receptor (Acession number NP_110387.1); expressed in transfected cells; host or cells: CHO-A21-EDG8#12 (CHO clone co-expressing mitochondrial aequorin and chimaeric Gaqi5)
T1 sequence (Q9H228 whole entry): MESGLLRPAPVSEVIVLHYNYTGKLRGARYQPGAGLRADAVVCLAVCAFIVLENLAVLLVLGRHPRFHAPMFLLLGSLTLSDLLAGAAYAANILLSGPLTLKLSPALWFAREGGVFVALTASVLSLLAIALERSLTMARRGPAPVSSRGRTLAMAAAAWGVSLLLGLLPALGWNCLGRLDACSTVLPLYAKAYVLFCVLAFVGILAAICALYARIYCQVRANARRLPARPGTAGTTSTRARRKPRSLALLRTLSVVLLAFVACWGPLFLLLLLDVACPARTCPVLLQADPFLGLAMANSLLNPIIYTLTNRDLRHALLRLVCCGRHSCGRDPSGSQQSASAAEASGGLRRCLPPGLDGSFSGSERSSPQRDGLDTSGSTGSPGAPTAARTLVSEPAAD
Method: (§1) Agonistic activity was measured as described below.
(§2) Cell clone CHO-A21-Edg1#17 carries the transgenes human EDG1 (S1PR1) receptor (Accession number NP_001391.2), mitochondrially targeted Aequorin (active part corresponds to accession number 1SL8_A) and chimaeric Gaqi5=Gaq modified with the 5 C-terminal amino-acids replaced with those of the Gai protein (DCGLF). CHO-A2-S1P3 Mix is a cell pool ectopically expressing human EDG3 (S1PR3) receptor (Accession number NP_005217.2) mitochondrially targeted Aequorin (active part has a sequence similar to accession number AY601106.1) and GNA16 (Accession number NP_002059.3). Cell clone CHO-A21-EDG8#12 carries the transgenes human EDG8 (S1PR5) receptor (Acession number NP_110387.1), mitochondrially expressed Aequorin (active part corresponds to accession number 1SL8_A) and chimaeric Gaqi5 (Gaq modified to present the 5 last amino-acids of the Gai protein “DCGLF”; see above). Cells are grown to mid-log phase in culture medium (HAM's F12, 10% FBS, 100 IU/mL penicillin, 100 μg/mL streptomycin, 250 μg/mL Zeocin, 400 μg/mL G418). 18 hours prior to frozen cells preparation, the medium is changed to remove the antibiotics.
(§3) 18 hours prior to the test, vials of frozen cells are quickly thawed in a 37° C. water bath, cells are recovered by centrifugation and resuspended in assay buffer (DMEM/HAM's F12 with HEPES, without phenol red+0.1% fatty acid-free BSA). Cells are gently agitated in suspension overnight at RT in presence of 5 μM of Coelenterazine h (Molecular Probes). On the day of the test, cells are diluted to their final working concentrations in assay buffer and agitated in suspension for 1 h at RT. Cells are then placed in the luminescence reader (Hamamatsu Functional Drug Screening System 6000, FDSS6000). During cells incubation, compounds are prepared in 100% DMSO, and subsequently diluted in assay buffer. Compounds are then dispensed in the assay plate (black, clear-bottom, 384-well plate). After binding of agonists to the human S1P receptor the intracellular calcium concentration increases and binding of calcium to the Aequorin/Coelenterazine complex leads to an oxidation reaction of coelenterazine, which results in the production of Aequorin, coelenteramide, CO2 and light (Dmax 469 nm). The luminescent response is dependent on the agonist concentration. For agonist testing, 30 μL of cell suspension are injected on 30 μL of test compound or reference agonist in the assay plate. The resulting emission of light is recorded for 90 seconds using the FDSS6000. Dose response curves with the reference compounds are performed before testing the compounds. S1P is the reference agonist and JTE-013 the reference antagonist for S1P2.
(§4) Luminescence data are integrated over the reading interval for agonist and antagonist modes. To standardize the emission of recorded light (determination of the “100% signal”) across plates and across different experiments, some of the wells contain 100 μM digitonin or a saturating concentration of ATP (20 μM). Plates also contain the reference agonist at a concentration equivalent to the EC80 obtained during the test validation and the EC100. Dose-response data from test compounds were analyzed with XLfit (IDBS) software using nonlinear regression applied to a sigmoidal dose-response model and the following equation: […]

[2] = target: T2, human EDG1 (S1PR1) receptor (Homo sapiens, UniProt P21453); experiment: Aequorin assay, agonist potency, CHO-A21-Edg1#17 cells; settings: agonist mode, aequorin luminescence; read-out: S1P1 EC50
T2 construct: expressed in transfected cells; host or cells: CHO-A21-Edg1#17 (CHO clone co-expressing mitochondrial aequorin and chimaeric Gaqi5)
T2 sequence (P21453 whole entry): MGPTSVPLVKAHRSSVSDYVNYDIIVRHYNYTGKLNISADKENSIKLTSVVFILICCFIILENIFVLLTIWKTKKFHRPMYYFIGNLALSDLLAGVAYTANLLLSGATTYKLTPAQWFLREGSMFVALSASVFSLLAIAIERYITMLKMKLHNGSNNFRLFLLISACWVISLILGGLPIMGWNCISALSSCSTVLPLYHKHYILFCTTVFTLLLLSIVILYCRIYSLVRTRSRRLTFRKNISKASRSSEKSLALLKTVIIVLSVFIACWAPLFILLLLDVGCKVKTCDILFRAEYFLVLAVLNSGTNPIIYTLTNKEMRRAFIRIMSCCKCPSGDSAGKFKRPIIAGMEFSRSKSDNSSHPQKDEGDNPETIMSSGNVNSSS
Method: as §1, §2, §3, §4

S1P4 = target: T3, S1P4 (Homo sapiens, UniProt O95977); experiment: Aequorin assay, agonist potency, S1P4; settings: agonist mode, aequorin luminescence
T3 sequence (O95977 1-384): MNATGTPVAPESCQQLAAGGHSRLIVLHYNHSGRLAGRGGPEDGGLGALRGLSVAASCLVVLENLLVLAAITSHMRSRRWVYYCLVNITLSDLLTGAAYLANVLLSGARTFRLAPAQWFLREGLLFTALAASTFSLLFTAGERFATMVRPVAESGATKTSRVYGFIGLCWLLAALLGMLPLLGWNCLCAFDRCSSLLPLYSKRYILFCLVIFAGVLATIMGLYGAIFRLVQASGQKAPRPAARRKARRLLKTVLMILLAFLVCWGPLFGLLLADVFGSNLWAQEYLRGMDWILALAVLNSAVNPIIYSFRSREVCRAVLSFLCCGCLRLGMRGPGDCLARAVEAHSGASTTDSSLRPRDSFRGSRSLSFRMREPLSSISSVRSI
Method: as §1, §3, §4

EC50 [1]	EC50 [2]	EC50 (S1P4)	SMILES
1000 to 10000 nM	> 1000 nM	< 1000 nM	CCOc1ccc(COc2ccc3c(c2)CC2(C3)CN(CC3(C(=O)O)CC3)C2)c(Cl)c1 [Example 32, 1-((5′-((2-chloro-4-ethoxybenzyl)oxy)-1′,3′-dihydrospiro[azetidine-3,2′-inden]-1-yl)methyl)cyclopropanecarboxylic acid]
1000 to 10000 nM	> 1000 nM	< 1000 nM	O=C(O)C1(CN2CC3(Cc4ccc(OCc5ccc(Cl)cc5)cc4C3)C2)CC1 [Example 33, 1-((5′-((4-chlorobenzyl)oxy)-1′,3′-dihydrospiro[azetidine-3,2′-inden]-1-yl)methyl)cyclopropanecarboxylic acid]
1000 to 10000 nM	> 1000 nM	< 1000 nM	O=C(O)C1(CN2CC3(Cc4ccc(OCc5c(F)cccc5Cl)cc4C3)C2)CC1 [Example 34, 1-((5′-((2-chloro-6-fluorobenzyl)oxy)-1′,3′-dihydrospiro[azetidine-3,2′-inden]-1-yl)methyl)cyclopropanecarboxylic acid compound with 2,2,2-trifluoroacetic acid (1:1)]
1000 to 10000 nM	> 1000 nM	< 1000 nM	CCOc1ccc(COc2ccc3c(c2)CC2(C3)CN(CC3(C(=O)O)CC3)C2)cc1 [Example 35, 1-((5′-((4-ethoxybenzyl)oxy)-1′,3′-dihydrospiro[azetidine-3,2′-inden]-1-yl)methyl)cyclopropanecarboxylic acid]
1000 to 10000 nM	> 1000 nM	< 1000 nM	O=C(O)C1(CN2CC3(Cc4ccc(OCc5cc(Cl)ccc5Cl)cc4C3)C2)CC1 [Example 36, 1-((5′-((2,5-dichlorobenzyl)oxy)-1′,3′-dihydrospiro[azetidine-3,2′-inden]-1-yl)methyl)cyclopropanecarboxylic acid compound with acetic acid (1:1)]
1000 to 10000 nM	> 1000 nM	< 1000 nM	O=C(O)C1(CN2CC3(Cc4ccc(OCc5c(F)cccc5F)cc4C3)C2)CC1 [Example 37, 1-((5′-((2,6-difluorobenzyl)oxy)-1′,3′-dihydrospiro[azetidine-3,2′-inden]-1-yl)methyl)cyclopropanecarboxylic acid compound with 2,2,2-trifluoroacetic acid (1:1)]
1000 to 10000 nM	> 1000 nM	< 1000 nM	O=C(O)C1(CN2CC3(Cc4ccc(OCc5ccc(Cl)cc5Cl)cc4C3)C2)CC1 [Example 38, 1-((5′-((2,4-dichlorobenzyl)oxy)-1′,3′-dihydrospiro[azetidine-3,2′-inden]-1-yl)methyl)cyclopropanecarboxylic acid]
1000 to 10000 nM	> 1000 nM	< 1000 nM	COc1ccc(COc2ccc3c(c2)CC2(C3)CN(CC3(C(=O)O)CC3)C2)c(Cl)c1 [Example 40, 1-((5′-((2-chloro-4-methoxybenzyl)oxy)-1′,3′-dihydrospiro[azetidine-3,2′-inden]-1-yl)methyl)cyclopropanecarboxylic acid]
1000 to 10000 nM	> 1000 nM	< 1000 nM	O=C(O)C1(CN2CC3(Cc4ccc(OCc5ccccc5C(F)(F)F)cc4C3)C2)CC1 [Example 41, 1-((5′-((2-(trifluoromethyl)benzyl)oxy)-1′,3′-dihydrospiro[azetidine-3,2′-inden]-1-yl)methyl)cyclopropanecarboxylic acid compound with 2,2,2-trifluoroacetic acid (1:1)]
100 to 1000 nM	> 1000 nM	< 1000 nM	Cc1cccc(F)c1COc1ccc2c(c1)CC1(C2)CN(CC2(C(=O)O)CC2)C1 [Example 42, 1-((5′-((2-fluoro-6-methylbenzyl)oxy)-1′,3′-dihydrospiro[azetidine-3,2′-inden]-1-yl)methyl)cyclopropanecarboxylic acid compound with 2,2,2-trifluoroacetic acid (1:1)]
